One data set relates to carrageenin edema. Kind of data set: Carrageenin edema in hind foot of rat (anti-inflammatory action). The class given is in vivo, rat (SD strain). More on the design: concentration or dose not given beside the values. To be noted: rats, oral one hour prior to carrageenin; foot volume three hours after. How it is done:
Anti-inflammatory action was evaluated by measuring the effect of the compounds (I) in inhibiting carrageenin edema as illustrated below.
Carrageenin edema in hind foot of rat.
SD strain rats of about 150 grams body weight were used; each group consisted of five rats. Thus, 0.1 ml of 0.5% carrageenin solution in physiological saline water was hypodermically injected to the right hind foot of rat. The test compound was given orally to rats one hour prior to the above carrageenin treatment. Then the volume of the foot before and three hours after the carrageenin treatment was measured and the difference was compared with that of the control group.
For orientation: The carrageenan paw model is a standard test of acute inflammation.

A further data set concerns SRS-A. Kind of data set: Anti-SRS-A action (SRS-A induced shrinkage of guinea pig ileus). The arrangement: species or system guinea pig (Hartley strain male). To be noted: treated five minutes before SRS-A (20 units), 5 min; for SRS-A Inhibition Ratio % 10^-6 M: 1 µM; for SRS-A Inhibition Ratio % 10^-7 M: 0.1 µM. Here is the method: (§1) The effect of the compounds (I) of the present invention in the treatment of asthma and allergic diseases were evaluated by a passive cutaneous anaphylaxis assay (PCA) in rats and by measuring anti-SRS-A action using ileus of guinea pigs.
Anti-SRS-A action (An anti-action against slow reacting substance of anaphylaxie)
Hartley strain male guinea pigs (300 to 350 grams body weight) are killed and 1.0 to 1.5 cm of ileus is immediately excised from ileocecal parts and is suspended in 10 ml of Tyrode solution (95% O2 -5% CO2 saturation) containing 10^-7 g/ml of atropine and 10^-6 g/ml of pyrilamine. SRS-A (20 units) (the amount of SRS-A showing the same shrinkage as 5 ng of histamine is defined as one unit) prepared by using sensitized guinea pig lung is given to cause shrinkage there. Then antagonistic action of test compounds treated five minutes ago against the shrinkage is measured and recorded via isotonic transducer. [formula] in which A' is a height of shrinkage of SRS-A + test compound and A is that of SRS-A.

Data set [1] deals with passive cutaneous anaphylaxis (PCA). Kind of data set: Passive cutaneous anaphylaxis assay (PCA) in rats. The class given is in vivo, rat (Wister strain). To be noted: Rattus norvegicus, po, 1 h, oral 10 mg/kg, one hour before antigen, read-out: PCA Inhibition Ratio %. Here is the method: as §1
(i) Antiserum abundant in homocytotropic antibody is prepared by the same method as Tada and Okumura did (cf. Journal of Immunology, volume 106, page 1002, […]). Thus, one mg (calculated as an amount of protein) of DNP-As (2,4-dinitrophenyl-coupled ascaris extract) prepared by methods of Strejan and Campbell (Journal of Immunology, volume 98, page 893, 1971) and of Eisen (Journal of American Chemical Society, volume 85, page 4593, 1953) and […] pertussis vaccine are administered to each paw of Wister strain rats (180 to 200 grams body weights) by dividing the dose by four. Five days later, 0.5 mg of DNP-As is adminstered into muscle of back. Eight days later from the initial immunization, blood is taken from descending aorta under anesthetizing with ether, the resulting serum is stored at -80° C. and is melted before use.
(ii) Effect of tested compounds is investigated as follows:
Anti-serum obtained by the method (i) is diluted with physiological saline solution double by double successively and 0.05 ml of each diluted solution is administered into back of Wister strain rats (140 to 160 grams body weight) subcutaneously. After 72 hours, a solution of 2 mg (calculated as protein) of DNP-As and 2.5 mg of Evand Blue dissolved in 1 ml of physiological saline solution is administered intravenously at a dose of 5 ml/kg. After thirty minutes from antigen solution administration, the animals are killed and diameters of blue spots appeared at the place where antiserum is administered are measured. The PCA test is conducted by the same method as already described using a diluted solutions of antiserum which always show 10 mm or more of spot diameters and the effect of the test compounds is judged. Thus, antiserum diluted solutions are administered to two places in back. Test compounds are administered orally at the dose of 10 mg/kg one hour before administration of antigen solution. From the skin of reacted parts of killed animals, leaked or emitted dyestuff is extracted [cf. Baeck and Steinetz: J. Pharmacol. Exp. Ther., Vol. 131, page 400 (1961)] and the amount of the dyestuff is measured. The inhibition ratio is calculated by the following expression: [formula] in which R' is an amount of dyestuff in the group treated with the test compounds and A is that in the control group.

Another data set concerns male mice. Kind of data set: Acute toxicity, oral, observed for two weeks. The class given is in vivo. To be noted: oral 4000 mg/kg, dead/total. Here is the method: Acute toxicity is observed for two weeks by oral adminsitration of 4000 mg/kg of the test compounds to male mice. One group consists of four mice. Numbers of dead mice are shown in numerators.

The structures appear in SMILES notation.

On to `Cc1c(-c2ccc(C(C)(C)C)cc2)oc2c(C(=O)O)cccc2c1=O` [Example 55, 4'-tertiary butyl-3-methylflavone-8-carboxylic acid], for which, in the data set on carrageenin edema, the “% Inhibition (carrageenin edema)” value is given as 19.1%. For the same compound, in the data set with SRS-A, the “SRS-A Inhibition Ratio % 10^-6 M” value was found to be 100% and the “SRS-A Inhibition Ratio % 10^-7 M” value worked out at 21.1%. In addition, the inhibition in vivo at 10 mg/kg in data set [1] worked out at 20.3%.
Turning to `CCCCCCCCc1ccc(-c2oc3c(C(=O)O)cccc3c(=O)c2C)cc1` [Example 62, 3-methyl-4'-n-octylflavone-8-carboxylicacid], in the data set with SRS-A, the “SRS-A Inhibition Ratio % 10^-6 M” value is 83.3% and the “SRS-A Inhibition Ratio % 10^-7 M” value stood at 31.0%. Further, in data set [1], the inhibition in vivo at 10 mg/kg worked out at 16.3%. Besides, the “Lethal Ratio” value in the data set on male mice was 0/4.
As for `CCCCCc1ccc(-c2oc3c(C(=O)O)cccc3c(=O)c2C)cc1` [Example 58, 3-methyl-4'-n-pentylflavone-8-carboxylic acid], the “% Inhibition (carrageenin edema)” value with carrageenin edema was determined as 31.9%. In the data set on SRS-A, the “SRS-A Inhibition Ratio % 10^-6 M” value is recorded as 40.0% and the “SRS-A Inhibition Ratio % 10^-7 M” value stood at 10.3%. In addition, in data set [1], the inhibition in vivo at 10 mg/kg was determined as 28.8%. In the data set with male mice, the “Lethal Ratio” value is 0/4.
`Cc1c(-c2ccccc2OC(C)C)oc2c(C(=O)O)cccc2c1=O` [Example 20, 2'-isopropoxy-3-methylflavone-8-carboxylic acid]: the “% Inhibition (carrageenin edema)” value with carrageenin edema was found to be 32.5%. In the data set on SRS-A, the “SRS-A Inhibition Ratio % 10^-6 M” value stood at 38.5% and the “SRS-A Inhibition Ratio % 10^-7 M” value is on record as 20.4%. For the same compound, the inhibition in vivo at 10 mg/kg in data set [1] was 20.7%.
The matching figures for `CCN(CC)C(=O)c1cccc2c(=O)c(C)c(-c3ccccc3C)oc12` [Example 35, 2',3-dimethylflavone-8-carboxylic acid N,N-diethylamide]: 13.0%, 48.8%, 18.0% and 13.3%.
Regarding `CCNC(=O)c1cccc2c(=O)c(C)c(-c3ccccc3OC)oc12` [Example 13, 2'-methoxy-3-methylflavone-8-carboxylic acid acid N-ethylamide], in the data set with SRS-A, the “SRS-A Inhibition Ratio % 10^-6 M” value came out at 45.2% and the “SRS-A Inhibition Ratio % 10^-7 M” value is recorded as 37.4%. Also, the inhibition in vivo at 10 mg/kg in data set [1] was found to be 23%. Further, the “Lethal Ratio” value in the data set on male mice is 1/4.
`CCOC(=O)c1cccc2c(=O)c(C)c(-c3ccccc3OC)oc12` [Example 11, ethyl 2'-methoxy-3-methylflavone-8-carboxylate]: in the data set with SRS-A, the “SRS-A Inhibition Ratio % 10^-6 M” value came out at 100% and the “SRS-A Inhibition Ratio % 10^-7 M” value is 35.1%. In addition, in data set [1], the inhibition in vivo at 10 mg/kg is 16.3%. In addition, the “Lethal Ratio” value with male mice is 0/4.
The matching figures for `CCOc1ccccc1-c1oc2c(C(=O)N(CC)CC)cccc2c(=O)c1C` [Example 18, 2'-ethoxy-3-methylflavone-8-carboxylic acid N,N-diethylamide]: 57.1%, 32.1%, 27.4% and 0/4.
As to `CCN(CC)C(=O)c1cccc2c(=O)c(C)c(-c3ccccc3)oc12` [Example 9, 3-methylflavone-8-carboxylic acid N,N-diethylamide], in the data set on SRS-A, the “SRS-A Inhibition Ratio % 10^-6 M” value turned out to be 64.7% and the “SRS-A Inhibition Ratio % 10^-7 M” value is 50.7%. For the same compound, in data set [1], the inhibition in vivo at 10 mg/kg amounted to 21.9%.
As to `Cc1c(-c2ccc(Cl)cc2)oc2c(C(=O)OCCO)cccc2c1=O` [Example 74, beta-hydroxyethyl 4'-chloro-3-methylflavone-8-carboxylate], in the data set with SRS-A, the “SRS-A Inhibition Ratio % 10^-6 M” value is listed as 52.0% and the “SRS-A Inhibition Ratio % 10^-7 M” value is 18.7%. Further, the inhibition in vivo at 10 mg/kg in data set [1] turned out to be 17.3%. The “Lethal Ratio” value in the data set with male mice was 0/4.

(Values after US4594345A, “Methylflavone-8-carboxylates” (Nippon Shinyaku Co. Ltd., priority 1982, dated 1986).)
